Test results taken from patent US6110494A, “Cisapride mini-tablet formulations” (Elan Corporation, plc, priority 1997, dated 2000).

How the values were obtained:
[1] = extended release, viscous hydrophilic polymers; cited from earlier work
[2] = cited from earlier work
[3] = Solubility of cisapride and its salt

SMILES | dissolution rates [1] | effect of food on absorption ([2]; food) | half life ([2]; in vivo) | absorption in distal regions of the gastrointestinal tract ([2]; more distal regions) | solubilisation at pH 6.8 [3]
COc1cc(N)c(Cl)cc1C(=O)NC1CCN(CCCOc2ccc(F)cc2)CC1OC (single isomer, unassigned; (-)) [(-)-cisapride-(L)tartrate] | equal dissolution rates | – | – | – | –
COc1cc(N)c(Cl)cc1C(=O)NC1CCN(CCCOc2ccc(F)cc2)CC1OC (stereo not drawn) [Cisapride] | – | enhancing effect on the absorption | relatively short half life | significant decrease in absorption | SLS (sodium lauryl sulphate) was required to solubilise
COc1cc(N)c(Cl)cc1C(=O)NC1CCN(CCCOc2ccc(F)cc2)CC1OC.O=C(O)C(O)C(O)C(=O)O (single isomer, unassigned; (+)) [(+)-cisapride-(L) tartrate] | equal dissolution rates | – | – | – | –
